From patent US20220071971A1, “MACROCYCLIC COMPOUNDS AND THEIR USE IN THE TREATMENT OF DISEASE” (NOVARTIS AG, priority 2018, published 2022) come the findings set out here.

Each structure is given as a SMILES string.

This test addresses T1, delF508-CFTR (Homo sapiens, UniProt P13569, DEL508-508).
T1 construct: expressed in transfected cells
The test is described as follows: Measurement of delF508-CFTR-HRP surface expression in CFBE41o- cells. Format: cell-based. The note with it: for EC50: HRP-tagged delF508-CFTR surface expression, CFBE41o- cells, 24 h with compound, 10-point curve, highest concentration 10 μM; for Emax: CFBE41o-, efficacy relative to reference compound 3-(6-(1-(2,2-difluorobenzo[d][1,3]dioxol-5-yl)cyclopropane-1-carboxamido)-3-methylpyridin-2-yl)benzoic acid, read-out: DelF508-CFTR-HRP Amax %. The method in brief: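 CFBE41o- cells stably expressing delF508-CFTR with HRP in the fourth extracellular loop, induced 48 h with 500 ng/mL doxycycline, then exposed to compound (10-point, 3-fold, top 10 μM, ≤0.5% DMSO) for 24 h at 37° C. Surface HRP read by luminescence with cell-impermeant substrate; EC50 by logistic fit, triplicates, efficacy relative to reference corrector.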

T1 sequence (P13569 with tags, fused parts or gaps DEL508-508): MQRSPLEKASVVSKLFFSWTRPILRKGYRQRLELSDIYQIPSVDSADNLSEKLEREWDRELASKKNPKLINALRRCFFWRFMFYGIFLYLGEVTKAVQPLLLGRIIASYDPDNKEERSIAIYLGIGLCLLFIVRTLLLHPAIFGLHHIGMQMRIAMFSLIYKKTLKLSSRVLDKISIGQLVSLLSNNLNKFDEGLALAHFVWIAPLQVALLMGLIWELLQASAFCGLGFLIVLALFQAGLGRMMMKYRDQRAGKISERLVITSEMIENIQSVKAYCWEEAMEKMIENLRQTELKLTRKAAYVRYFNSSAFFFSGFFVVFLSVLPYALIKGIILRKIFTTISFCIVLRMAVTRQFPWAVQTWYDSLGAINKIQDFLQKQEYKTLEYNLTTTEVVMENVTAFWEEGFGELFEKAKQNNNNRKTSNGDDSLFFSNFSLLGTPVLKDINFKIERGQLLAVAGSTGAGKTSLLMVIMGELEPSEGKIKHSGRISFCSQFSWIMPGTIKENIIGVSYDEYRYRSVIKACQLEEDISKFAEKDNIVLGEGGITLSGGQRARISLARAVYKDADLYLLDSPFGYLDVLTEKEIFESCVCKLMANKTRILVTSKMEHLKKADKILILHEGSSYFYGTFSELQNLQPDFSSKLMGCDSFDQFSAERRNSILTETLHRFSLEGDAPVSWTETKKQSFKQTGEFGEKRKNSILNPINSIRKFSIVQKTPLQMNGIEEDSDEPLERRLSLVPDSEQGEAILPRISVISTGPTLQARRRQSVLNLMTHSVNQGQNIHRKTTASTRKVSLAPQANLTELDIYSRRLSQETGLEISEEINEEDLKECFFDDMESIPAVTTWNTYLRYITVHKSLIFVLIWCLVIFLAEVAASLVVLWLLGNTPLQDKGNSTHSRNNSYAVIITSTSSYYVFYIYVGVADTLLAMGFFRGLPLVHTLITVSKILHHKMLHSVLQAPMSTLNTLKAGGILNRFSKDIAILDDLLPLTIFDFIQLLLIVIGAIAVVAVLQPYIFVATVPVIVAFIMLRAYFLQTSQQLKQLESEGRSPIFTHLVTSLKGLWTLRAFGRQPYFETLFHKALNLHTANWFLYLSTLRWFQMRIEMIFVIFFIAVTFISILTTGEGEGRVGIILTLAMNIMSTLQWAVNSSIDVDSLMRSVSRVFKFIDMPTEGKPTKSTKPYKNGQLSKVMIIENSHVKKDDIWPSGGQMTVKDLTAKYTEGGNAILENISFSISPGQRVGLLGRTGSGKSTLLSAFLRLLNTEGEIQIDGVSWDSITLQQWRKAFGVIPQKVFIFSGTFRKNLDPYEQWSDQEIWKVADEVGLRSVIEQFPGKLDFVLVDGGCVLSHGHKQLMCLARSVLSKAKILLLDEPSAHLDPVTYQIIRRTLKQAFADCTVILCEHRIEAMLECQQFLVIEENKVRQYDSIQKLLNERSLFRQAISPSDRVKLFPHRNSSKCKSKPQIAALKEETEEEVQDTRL

For `O=C(O)CCCCN1CCCCCc2ccccc2-c2nc(ccc2C(F)(F)F)NS(=O)(=O)c2cccc1n2` [Compound 77, 5-(4,4-dioxido-2^3-(trifluoromethyl)-4-thia-3,6-diaza-2,5(2,6)-dipyridina-1(1,2)-benzenacycloundecaphane-6-yl)pentanoic acid], the concentration giving a half-maximal response (EC50) stood at 492 nM.

Take `O=CCCCN1CCCCCc2ccccc2-c2nc(ccc2C(F)(F)F)NS(=O)(=O)c2cccc1n2` [Compound 73, 4-(4,4-dioxido-2^3-(trifluoromethyl)-4-thia-3,6-diaza-2,5(2,6)-dipyridina-1(1,2)-benzenacycloundecaphane-6-yl)butanal]: the Emax is 764% and the EC50 amounted to 439 nM. On to `O=S1(=O)Nc2ccc(C(F)(F)F)c(n2)-c2cccnc2NCCCNc2cccc1n2` [Compound 10, 2^3-(trifluoromethyl)-4-thia-3,6,10-triaza-1(3,2),2,5(2,6)-tripyridinacyclodecaphane 4,4-dioxide], for which the Emax was found to be 29% and the EC50 amounted to 2800 nM. In the case of `O=C(O)CCCN1CCCCOc2ccc(F)cc2-c2nc(ccc2C(F)(F)F)NS(=O)(=O)c2cccc1n2` [Compound 63, 4-(1^5-fluoro-4,4-dioxido-2^3-(trifluoromethyl)-11-oxa-4-thia-3,6-diaza-2,5(2,6)-dipyridina-1(1,2)-benzenacycloundecaphane-6-yl)butanoic acid], the EC50 was 1800 nM.

`O=S1(=O)Nc2ccc(C(F)(F)F)c(n2)-c2ccccc2CCCCNCCNc2cccc1n2` [Compound 131, 2^3-(trifluoromethyl)-4-thia-3,6,9-triaza-2,5(2,6)-dipyridina-1(1,2)-benzenacyclotridecaphane 4,4-dioxide]: the Emax turned out to be 30.7% and the concentration giving a half-maximal response (EC50) amounted to 3900 nM. `COC(=O)CNCCN1CCCCCc2ccccc2-c2nc(ccc2C(F)(F)F)NS(=O)(=O)c2cccc1n2` [Compound 126, methyl (2-(4,4-dioxido-2^3-(trifluoromethyl)-4-thia-3,6-diaza-2,5(2,6)-dipyridina-1(1,2)-benzenacycloundecaphane-6-yl)ethyl)glycinate]: the Emax worked out at 488% and the EC50 was determined as 831 nM. Take `CCN1CCCCCc2ccccc2-c2nc(ccc2C(F)(F)F)NS(=O)(=O)c2cccc1n2` [Compound 18, 6-ethyl-2^3-(trifluoromethyl)-4-thia-3,6-diaza-2,5(2,6)-dipyridina-1(1,2)-benzenacycloundecaphane 4,4-dioxide]: the Emax came out at 802% and the half-maximal effective concentration (EC50) was 645 nM. The corresponding values for `O=S1(=O)Nc2ccc(C(F)(F)F)c(n2)-c2ccccc2OCCCCN(CCO)c2cccc1n2` [Compound 2, 6-(2-hydroxyethyl)-2^3-(trifluoromethyl)-11-oxa-4-thia-3,6-diaza-2,5(2,6)-dipyridina-1(1,2)-benzenacycloundecaphane 4,4-dioxide] are 610% and 606 nM. In the case of `CN1CCCCCCc2ccccc2-c2nc(ccc2C(F)(F)F)NS(=O)(=O)c2cccc1n2` [Compound 35, 6-methyl-2^3-(trifluoromethyl)-4-thia-3,6-diaza-2,5(2,6)-dipyridina-1(1,2)-benzenacyclododecaphane 4,4-dioxide], the Emax was 715% and the half-maximal effective concentration (EC50) worked out at 331 nM.

`NCCN1CCCCc2ccccc2-c2nc(ccc2C(F)(F)F)NS(=O)(=O)c2cccc1n2` [Compound 130, 6-(2-aminoethyl)-2^3-(trifluoromethyl)-4-thia-3,6-diaza-2,5(2,6)-dipyridina-1(1,2)-benzenacyclodecaphane 4,4-dioxide]: the Emax came to 188% and the EC50 stood at 2440 nM. Consider `Cc1ccc2nc1-c1ccccc1CCCCCN(CCCC(=O)O)c1cccc(n1)S(=O)(=O)N2` [Compound 72, 4-(2^3-methyl-4,4-dioxido-4-thia-3,6-diaza-2,5(2,6)-dipyridina-1(1,2)-benzenacycloundecaphane-6-yl)butanoic acid], for which the Emax was 396% and the EC50 turned out to be 2430 nM. With `O=C(O)CCOCCN1CCCCCc2ccccc2-c2nc(ccc2C(F)(F)F)NS(=O)(=O)c2cccc1n2` [Compound 64, 3-(2-(4,4-dioxido-2^3-(trifluoromethyl)-4-thia-3,6-diaza-2,5(2,6)-dipyridina-1(1,2)-benzenacycloundecaphane-6-yl)ethoxy)propanoic acid], the Emax is 862% and the EC50 amounted to 913 nM. The corresponding values for `O=S1(=O)Nc2ccc(C(F)(F)F)c(n2)-c2ccccc2CCCOCCNc2cccc1n2` [Compound 119, 2^3-(trifluoromethyl)-9-oxa-4-thia-3,6-diaza-2,5(2,6)-dipyridina-1(1,2)-benzenacyclododecaphane 4,4-dioxide] are 356% and 866 nM. The corresponding values for `O=S1(=O)Nc2ccc(C(F)(F)F)c(n2)-c2cccnc2NCCCCCCNc2cccc1n2` [Compound 7, 2^3-(trifluoromethyl)-4-thia-3,6,13-triaza-1(3,2),2,5(2,6)-tripyridinacyclotridecaphane 4,4-dioxide] are 386% and 977 nM. As for `O=C(O)CCCCN1CCCCCCCc2ccccc2-c2nc(ccc2C(F)(F)F)NS(=O)(=O)c2cccc1n2` [Compound 101, 5-(4,4-dioxido-2^3-(trifluoromethyl)-4-thia-3,6-diaza-2,5(2,6)-dipyridina-1(1,2)-benzenacyclotridecaphane-6-yl)pentanoic acid], the EC50 came to 84 nM. With `Cc1ccnc2c1-c1nc(ccc1Cl)NS(=O)(=O)c1cccc(n1)NCCCCCN2` [Compound 106, 2^3-chloro-1^4-methyl-4-thia-3,6,12-triaza-1(3,2),2,5(2,6)-tripyridinacyclododecaphane 4,4-dioxide], the Emax is 287% and the EC50 was 1410 nM.

On to `O=S1(=O)Nc2ccc(C(F)(F)F)c(n2)-c2ccccc2CCCCCCNc2cccc1n2` [Compound 36, 2^3-(trifluoromethyl)-4-thia-3,6-diaza-2,5(2,6)-dipyridina-1(1,2)-benzenacyclododecaphane 4,4-dioxide], for which the Emax stood at 583% and the concentration giving a half-maximal response (EC50) was 253 nM.

As for `O=S1(=O)Nc2ccc(Cl)c(n2)-c2ccccc2CCCOc2cccc1n2` [Compound 114, 2^3-chloro-6-oxa-4-thia-3-aza-2,5(2,6)-dipyridina-1(1,2)-benzenacyclononaphane 4,4-dioxide], the Emax amounted to 97.1% and the EC50 was 3310 nM.

With `O=C(O)CCCN1CCCCCCCc2ccccc2-c2nc(ccc2C(F)(F)F)NS(=O)(=O)c2cccc1n2` [Compound 65, 4-(4,4-dioxido-2^3-(trifluoromethyl)-4-thia-3,6-diaza-2,5(2,6)-dipyridina-1(1,2)-benzenacyclotridecaphane-6-yl)butanoic acid], the EC50 is 280 nM.

Turning to `O=S1(=O)Nc2ccc(C(F)(F)F)c(n2)-c2cccnc2NCCCCCNc2cccc1n2` [Compound 6, 2^3-(trifluoromethyl)-4-thia-3,6,12-triaza-1(3,2),2,5(2,6)-tripyridinacyclododecaphane 4,4-dioxide], the Emax amounted to 248% and the 50% effective concentration (EC50) came to 1680 nM.

As to `O=S1(=O)Nc2ccc(C(F)(F)F)c(n2)-c2ccccc2CCCCCN(CCN2CCOCC2)c2cccc1n2` [Compound 13, 6-(2-morpholinoethyl)-2^3-(trifluoromethyl)-4-thia-3,6-diaza-2,5(2,6)-dipyridina-1(1,2)-benzenacycloundecaphane 4,4-dioxide], the Emax came out at 601% and the EC50 was 393 nM.

For orientation: EC50 means the concentration that produces a half-maximal response.
